# Where “and” joins values, the source holds several entries; their conditions need not be identical. Equal values may be shown once.
# Test system: mouse ear swelling
# Assay: Croton oil mouse ear swelling, IL-17A inhibitory peptide administered via duodenum
# Assay type: in vivo
# Conditions: peptides 300 mg/kg, dexamethasone 1 mg/mL, 10 mL/kg
# Description: Enteric coating technology can be used to achieve oral administration of targeted small intestine drugs. Considering factors such as gastric emptying and physical barriers in the stomach, in order to accurately detect the feasibility of direct intestinal administration of targeted IL-17A inhibitory peptide, duodenal administration is designed. Eight mice in each group are subjected to surgical exposure of the duodenum under ether anesthesia, and the drug is injected according to different grouping schemes.
# The model control group (Con) is given PEG400 (50%, w/v)/physiological saline. The administration group was given different polypeptide samples (300 mg/kg), while the positive control group was given dexamethasone (1 mg/mL, 10 mL/kg), and then the muscular layer and cortex were sutured. Ear swelling model was established 6 minutes after suture. All mice in each group were coated with 10 μL croton oil on both sides of the right ear. After 4 hours of inflammation, the mice in each group were killed for cervical dislocation. After that, ear pieces were punched in the symmetrical parts of the left and right ears with a hole punch and weighed. Their mass was recorded. The swelling degree and swelling rate were calculated:
# Swelling rate=((right ear mass−left ear mass)/left ear mass)*100%
structure (smiles),measurement,setting,value
C[C@@H]1C[C@H]2[C@@H]3CCC4=CC(=O)C=C[C@]4(C)[C@@]3(F)[C@@H](O)C[C@]2(C)[C@@]1(O)C(=O)CO [dexamethasone],Swelling (%),4 hours after croton oil,58.11 ± 18.81 % and 65.67 ± 15.52 %
same,Swelling inhibitory (%),vs model control,39.57% and 28.84%

# Reference: patent US20230416329A1, “A PEPTIDE WITH DISULFIDE BONDS AND INHIBITORY ACTIVITY AGAINST SERINE PROTEASES, DERIVED HYBRID PEPTIDES THEREOF, AND USES THEREOF” (INSTITUTE OF MATERIA MEDICA , CHINESE ACADEMY OF MEDICAL …, priority 2020, published 2023)
